How the values were obtained:
Male CD-1 mice = assay: Calcium-induced arrhythmia model (time to AV block after CaCl2 infusion); assay type: in vivo; conditions: compound IV 3 min before CaCl2 infusion (100 mg/kg/min), saline control 62-78
Protocol: Peptides suitable for administration to cardiac cells can be identified in an in vivo model of calcium-induced arrhythmias according to the model of Lynch et al. (1981) J Cardiovasc. Pharmacol. 3: 49-60. Male CD-1 mice are anaesthetized with Ketamine (75 mg/kg) and medetomidine (1 mg/kg) IP. An i.v. cannula is inserted into the tail vein. A lead II ECG signal is recorded continuously by positioning stainless steel ECG electrodes on the right forelimb and […]. The ground electrode is placed on the right hind limb. The signal is amplified and filtered using Gould physiograph components and po-ne-mah data acquisition software. After a 90 sec equilibration period test compound is injected into the tail vein (over 30 seconds). Mice pre-treated with vehicle are tested as control animals. The injection volume is 100 μl/30 g mice in all experiments. Infusion of CaCl2 (30 mg/mL, 0.1 mL/min/30 g mice, 100 mg/kg/min) is started 3 min after IV administration of drug or vehicle (0.9% saline). The time lag to onset of cardiac conduction block is determined as the time from the start of CaCl2 infusion until the first arrhythmic event occurred. The first conduction block is defined as the first RR-interval, larger than or equal to 3 times one RR-interval from the pre-treatment period. The first arrhythmic event occurring is either a second degree AV-block (intermittent failure of the AV conduction characterized by a P-wave without the concomitant QRS complex) or a second degree SA block (prolonged RR-interval and a QRS-complex without a preceding P-wave). Responses are expressed relative to the time until 2nd degree AV-block occurred in vehicle treated mice.
The anti-arrhythmic effect of compounds according to the present teachings was tested in a model of calcium-induced arrhythmias according to the model of Lynch et al., J. Cardiovasc. Pharmacol. (1981), 3: 49-60. Male CD-1 mice were anaesthetized with Ketamine (75 mg/kg) and medetomidine (1 mg/kg) IP. An i.v. cannula was inserted into the tail vein. A lead II ECG signal was recorded continuously by positioning stainless steel ECG electrodes on the right forelimb and […]. The ground electrode was placed on the right hind limb. The signal was amplified and filtered using Gould physiograph components and po-ne-mah data acquisition software. After a 90 sec equilibration period test compound was injected into the tail vein (over 30 seconds). Mice pre-treated with vehicle (0.9% saline) were tested as control animals. The injection volume was 100 μl/30 g mice in all experiments. Infusion of CaCl2 (30 mg/mL, 0.1 mL/min/30 g mice, 100 mg/kg/min) was started 3 min after IV administration of drug or vehicle. The time lag to onset of cardiac conduction block was determined as the time from the start of CaCl2 infusion until the first arrhythmic event occurred. The first conduction block was defined as the first RR-interval, larger/or equal to, 3 times one RR-interval from the pre-treatment period. The first arrhythmic event occurring was either a second degree AV-block (intermittent failure of the AV conduction characterized by a P-wave without the concomitant QRS complex) or a second degree SA block (prolonged RR-interval and a QRS-complex without a preceding P-wave).
Mice pre-treated with vehicle (0.9% saline) were tested on all days as a measure for control level in untreated animal. Injection volume was 100 μL in all experiments. The time lag to onset of arrhythmias was determined as the time from the start of CaCl2 infusion until the first event of conduction block defined as intermittent failure of the SA or AV conduction characterized by delayed P-wave activation (SA block) or by a P-wave without the concomitant QRS complex (AV block). The time lag to onset of AV block is given below in Table 2.

Plasma stability assay = conditions: male rat plasma (1:1 plasma:pH 7.4 buffer), 1 μM, 37° C., 3 hours
Protocol: To predict its plasma stability, compounds of the present teachings were incubated in male rat plasma (1:1 plasma:pH 7.4 buffer) at 1 μM concentration at 37° C. After 3 hours, the reaction was quenched with cold acetonitrile. The solution was centrifuged and the supernatant was analyzed with LC-MS using the following HPLC conditions: Thermo Hypersil-Keystone Aquasil C18 column (50 mm×2.1 mm, 5 μM) at ambient temperature; Solvent A: 0.1% formic acid in water; Solvent B: 0.1% formic acid in acetonitrile; solvent gradient: 100% A to 50% A over 2.5 min, to 10% A over 1.5 min, and returning to 100% A and re-equilibrating for 1.5 min; flowrate: 0.8 mL/min. The percent of the compound remaining was calculated by dividing the 3-hour incubation sample LC-MS signal area counts by the time=0 area counts.

[1] = Metabolic stability assay (liver microsomes); conditions: male, rat
Protocol: To predict the stability of the compound under first pass (Phase I) metabolism, compounds of the present teachings were incubated with male rat liver microsomes at 1 μM concentration and 0.5 mg/mL protein concentration at 37° C. After 15 min, the reaction was quenched with cold acetonitrile. The solution was centrifuged and the supernatant was analyzed with LC-MS using the HPLC conditions described in section 3 above.

% Remaining (Plasma stability assay) [%]	half-life at 1 μM [1] [min]	SMILES	Time to AV block (Male CD-1 mice) [s]	half-life in male rat liver microsomes
		NC(CCC(=O)O)C(=O)N1C[C@H](NC(=O)c2ccccc2)C[C@H]1C(=O)O (stereo partly drawn) [Compound 6, (2S,4R)1-(2-Amino-4-carboxy-butyryl)-4-benzoylamino-pyrrolidine-2-carboxylic acid]	117.9	
107		O=CNCC(=O)N1C[C@H](NC(=O)c2ccccc2)C[C@H]1C(=O)O [Compound 85, (2S,4R) 4-benzamido-1-(2-formamidoacetyl)pyrrolidine-2-carboxylic acid]		
100	> 30	CC(=O)NCC(=O)N1C[C@H](NC(=O)c2ccccc2)C[C@H]1C(=O)O [Compound 80, (2S,4R) 1-(2-acetamidoacetyl)-4-benzamidopyrrolidine-2-carboxylic acid]	111.5	
		CC(C)(C)OC(=O)NCC(=O)N1C[C@H](NC(=O)c2ccccc2)C[C@H]1C(N)=O [Compound 69, (2S,4R) 4-benzamido-1-(2-(tert-butoxycarbonylamino)acetyl) pyrrolidine-2-carboxamide]		greater than 30 minutes
95	> 30	NCC(=O)N1C[C@H](NC(=O)c2ccccc2)C[C@H]1C(=O)NC1CCC1 [Compound 73, (2S,4R) 1-(2-aminoacetyl)-4-benzamido-N-cyclobutylpyrrolidine-2-carboxamide]		
		O=C(N[C@@H]1C[C@@H](C(=O)O)N(C(=O)CO)C1)c1ccccc1 [Compound 52, (2S,4R) 4-Benzoylamino-1-(2-hydroxy-acetyl)-pyrrolidine-2-carboxylic acid]	135.6	
34	> 30	O=C(N[C@@H]1C[C@@H](C(=O)O)N(C(=O)CNC(=O)C(F)(F)F)C1)c1ccccc1 [Compound 82, (2S,4R) 4-benzamido-1-(2-(2,2,2-trifluoroacetamido)acetyl)pyrrolidine-2-carboxylic acid]	113.8	
88	> 30	CC(C)CNC(=O)[C@@H]1C[C@@H](NC(=O)c2ccccc2)CN1C(=O)CN [Compound 72, (2S,4R) 1-(2-aminoacetyl)-4-benzamido-N-isobutylpyrrolidine-2-carboxamide]		
100	> 30	CCNC(=O)[C@@H]1C[C@@H](NC(=O)c2ccccc2)CN1C(=O)CN [Compound 66, (2S,4R) 1-(2-aminoacetyl)-4-benzamido-N-ethylpyrrolidine-2-carboxamide]	122.7	
93	> 30	CCC(CC)NC(=O)[C@@H]1C[C@@H](NC(=O)c2ccccc2)CN1C(=O)CN [Compound 70, (2S,4R) 1-(2-aminoacetyl)-4-benzamido-N-(pentan-3-yl)pyrrolidine-2-carboxamide]		
100	> 30	CNCC(=O)N1C[C@H](NC(=O)c2ccccc2)C[C@H]1C(=O)O [Compound 81, (2S,4R) 4-benzamido-1-(2-(methylamino)acetyl)-pyrrolidine-2-carboxylic acid]	123.2	
96	> 30	NCC(=O)N1C[C@H](NC(=O)c2ccccc2)C[C@H]1C(=O)NC1CC1 [Compound 68, (2S,4R) 1-(2-aminoacetyl)-4-benzamido-N-cyclopropylpyrrolidine-2-carboxamide]	143.8	
90	> 30	NCC(=O)N1C[C@H](NC(=O)c2ccccc2)C[C@H]1C(=O)NC1CCCC1 [Compound 71, (2S,4R) 1-(2-aminoacetyl)-4-benzamido-N-cyclopentylpyrrolidine-2-carboxamide]		
		NCC(=O)Nc1cc(NC(=O)c2ccccc2)cc(C(=O)O)c1 [Compound 26, 3-(2-Amino-acetylamino)-5-benzoylamino-benzoic acid]	122.8	
87	> 30	CNC(=O)[C@@H]1C[C@@H](NC(=O)c2ccccc2)CN1C(=O)CN [Compound 65, (2S,4R) 1-(2-aminoacetyl)-4-benzamido-N-methylpyrrolidine-2-carboxamide]	115.2	
		O=C(CO)Nc1cc(NC(=O)c2ccccc2)cc(C(=O)O)c1 [Compound 54, 3-Benzoylamino-5-(2-hydroxy-acetylamino)-benzoic acid]	121.7	
100	> 30	CC(C)NC(=O)[C@@H]1C[C@@H](NC(=O)c2ccccc2)CN1C(=O)CN [Compound 67, (2S,4R) 1-(2-aminoacetyl)-4-benzamido-N-isopropylpyrrolidine-2-carboxamide]	134.4	
		NC(=O)C1N(C(=O)CO)CCN1C(=O)c1ccccc1 (stereo not drawn) [Compound 56, 1-Benzoyl-3-(2-hydroxy-acetyl)-imidazolidine-2-carboxylic acid amide]	128.1	
27	> 30	NCC(=O)N1C[C@H](NC(=O)c2ccccc2)C[C@H]1C(N)=O [Compound 64, (2S,4R) 1-(2-aminoacetyl)-4-benzamidopyrrolidine-2-carboxamide]	111.7	
100	> 30	CN(C)CC(=O)N1C[C@H](NC(=O)c2ccccc2)C[C@H]1C(=O)O [Compound 84, (2S,4R) 4-benzamido-1-(2-(dimethylamino)acetyl)pyrrolidine-2-carboxylic acid]	108.8	

SMILES	% Remaining (Plasma stability assay) [%]	half-life at 1 μM [1] [min]	Time to AV block (Male CD-1 mice) [s]	half-life in male rat liver microsomes
CC(C)(C)OC(=O)NCC(=O)N1C[C@H](NC(=O)c2ccccc2)C[C@H]1C(=O)O [Compound 83, (2S,4R) 4-benzamido-1-(2-(tert-butoxycarbonylamino)acetyl) pyrrolidine-2-carboxylic acid]	100	> 30	110.9	

Reference: patent US8431540B2, “Modified lysine-mimetic compounds” (Zealand Pharma A/S, priority 2005, dated 2013)
